# Bridge positions count the residues as written; N and C are the ends. Peptide text beside a SMILES is read from it.
# How the values were obtained:
# S. aureus B-767 = assay type: cell-based, Staphylococcus aureus; conditions: cation adjusted Mueller-Hinton broth, ~10^6 CFU/mL, 24 h, 37 °C, OD600 <0.1 in at least 3 of 4 wells, 2-128 μg/mL; shaded values previously reported ref 18
# Method in brief: (§1)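 Twofold broth microdilution of dAMPs (0–128 μg/mL) in quadruplicate; bacteria in 2X cation-adjusted Mueller–Hinton broth at ~10^6 CFU/mL, fungus in potato dextrose broth. Plates kept 24 h at 37 °C; MIC taken from OD600 <0.1 in ≥3 of 4 wells.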
# MRSA 6313 = assay type: cell-based, Staphylococcus aureus; conditions: cation adjusted Mueller-Hinton broth, ~10^6 CFU/mL, 24 h, 37 °C, OD600 <0.1 in at least 3 of 4 wells, 2-128 μg/mL; shaded values previously reported ref 18
# Method in brief: as §1
# MRSA 6381 = assay type: cell-based, Staphylococcus aureus; conditions: cation adjusted Mueller-Hinton broth, ~10^6 CFU/mL, 24 h, 37 °C, OD600 <0.1 in at least 3 of 4 wells, 2-128 μg/mL; shaded values previously reported ref 18
# Method in brief: as §1
# S. aureus 6061 = assay type: cell-based, Staphylococcus aureus; conditions: cation adjusted Mueller-Hinton broth, ~10^6 CFU/mL, 24 h, 37 °C, OD600 <0.1 in at least 3 of 4 wells, 2-128 μg/mL; shaded values previously reported ref 18
# Method in brief: as §1
# MRSA ATCC 33592 = assay type: cell-based, Staphylococcus aureus; conditions: cation adjusted Mueller-Hinton broth, ~10^6 CFU/mL, 24 h, 37 °C, OD600 <0.1 in at least 3 of 4 wells, 2-128 μg/mL; shaded values previously reported ref 18
# Method in brief: as §1
# A. baumannii 6043 = assay type: cell-based, Acinetobacter baumannii; conditions: cation adjusted Mueller-Hinton broth, ~10^6 CFU/mL, 24 h, 37 °C, OD600 <0.1 in at least 3 of 4 wells, 2-128 μg/mL; shaded values previously reported ref 18
# Method in brief: as §1
# A. baumannii 6838 = assay type: cell-based, Acinetobacter baumannii; conditions: cation adjusted Mueller-Hinton broth, ~10^6 CFU/mL, 24 h, 37 °C, OD600 <0.1 in at least 3 of 4 wells, 2-128 μg/mL; shaded values previously reported ref 18
# Method in brief: as §1
# A. baumannii ATCC 17978 = assay type: cell-based, Acinetobacter baumannii; conditions: cation adjusted Mueller-Hinton broth, ~10^6 CFU/mL, 24 h, 37 °C, OD600 <0.1 in at least 3 of 4 wells, 2-128 μg/mL; shaded values previously reported ref 18
# Method in brief: as §1
# L929 fibroblast cells = assay: Bioluminescent mammalian cytotoxicity assay; assay type: cell-based, murine; conditions: L929 fibroblasts, up to 64 μg/mL, 8 h of exposure, bioluminescence
# Procedure: Real-time killing of bacterial cells, P. aeruginosa or S. aureus, and mammalian cytotoxicity to assess dAMP off-target toxicity was evaluated using bioluminescent cells. The L929 fibroblast cells (ATCC, Manassas, VA, USA) were made bioluminescent by transfection with a luciferase gene. Cells (1 × 10^4 cells, 100 μL) were plated in 96-well black-walled plates and the candidate dAMPs were 2-fold serially diluted from specified concentrations in growth medium supplemented with 150 μg/mL D-luciferin. Each concentration was performed in triplicate, with the final volume being 200 μL. Imaging was performed at select times after the addition of the dAMP, and compared to concurrently run vehicle-control, using an IVIS Lumina imaging system (Caliper Life Sciences, Inc., Hopkinton, MA, USA). For imaging, the 96-well plate was positioned on the stage (12.5-cm field of view), with an open emission filter, binning of 4, and f-stop 1 and a 1-min exposure time. Monitoring bioluminescence allows assessment of the kinetics of cellular viability as there is a tight correlation between the bioluminescent signal and cell viability. […]
# Figure 2 RP504, RP556 and RP557 induce limited mammalian cell toxicity. […] Cells were plated at 1×10^4 cells/well, allowed to adhere overnight and the specific dAMP added, and cytotoxicity evaluated through 8 h. […]
# [1] = test system: vulvovaginal candidiasis infection; conditions: cited from earlier work
# Text: The dAMPs RP504, RP554 and RP557 were thus tested for their ability to treat a rodent vulvovaginal candidiasis infection. […] A daily dose with a 2% concentration lowered the CFU/sample by more than 4 logs compared to the con ...
# [2] = test system: S. aureus 49525 (Xen36 luciferase); assay type: cell-based, Staphylococcus aureus; conditions: 8 μg/mL, 60 min incubation, bioluminescence, triplicates from two independent experiments
# Text: Fungal and bacterial strains were obtained from American Type Culture Collection (ATCC, Manassas, VA, USA) or the clinical isolate collection at Trideum Biosciences (Frederick, MD, USA) and are presented in Table 1 and Table 2, respectively. Bioluminescence strains of P. aeruginosa 19660, transfected with the Xen5 luciferase gene, and S. aureus ATCC R 49525TM (Wright), transfected with the Xen36 luciferase gene, were obtained from Perkin Elmer (Waltham, MA, USA).
# Real-time killing of bacterial cells, P. aeruginosa or S. aureus, and mammalian cytotoxicity to assess dAMP off-target toxicity was evaluated using bioluminescent cells. The L929 fibroblast cells (ATCC, Manassas, VA, USA) were made bioluminescent by transfection with a luciferase gene. Cells (1 × 10^4 cells, 100 μL) were plated in 96-well black-walled plates and the candidate dAMPs were 2-fold serially diluted from specified concentrations in growth medium supplemented with 150 μg/mL D-luciferin. Each concentration was performed in triplicate, with the final volume being 200 μL. Imaging was performed at select times after the addition of the dAMP, and compared to concurrently run vehicle-control, using an IVIS Lumina imaging system (Caliper Life Sciences, Inc., Hopkinton, MA, USA). For imaging, the 96-well plate was positioned on the stage (12.5-cm field of view), with an open emission filter, binning of 4, and f-stop 1 and a 1-min exposure time. Monitoring bioluminescence allows assessment of the kinetics of cellular viability as there is a tight correlation between the bioluminescent signal and cell viability. Data analysis was performed using the Living Image software program (version 4.3, Caliper Life Sciences, Inc., Hopkinton, MA, USA).
# Figure 3 RP553, RP556, RP557 rapidly destroy P. aeruginosa and S. aureus. The bioluminescence of viable P. aeruginosa 19,660 and S. aureus 49,525 cells was quantitated in real time with an IVIS Lumina bioimaging system. Data represent the mean ± SE of triplicate replicates from two independent experiments. For some points, the error bars are shorter than the height of the symbols.
smiles,measurement,setting,value
"CC[C@H](C)[C@@H]1NC(=O)CNC(=O)[C@H](CCCCN)NC(=O)[C@H](Cc2ccc(O)cc2)NC(=O)[C@@H]2CSSC[C@H](NC1=O)C(=O)N[C@@H](Cc1ccccc1)C(=O)N[C@@H](CCCCN)C(=O)N[C@@H](CCCCN)C(=O)N[C@H](C(=O)N[C@@H](CCCCN)C(N)=O)CSSC[C@H](NC(=O)[C@H](Cc1ccccc1)NC(=O)[C@@H](N)CCCNC(=N)N)C(=O)N[C@@H](Cc1c[nH]c3ccccc13)C(=O)N[C@@H](CCCCN)C(=O)N[C@@H](C(C)C)C(=O)N2 [RP557] (H-RFCWKVCYKGICFKKCK-NH2; disulfide 3-16, 7-12)",MIC against S. aureus B-767,S. aureus B-767,4 µg/mL
same,MIC against MRSA 6313,MRSA 6313,4 µg/mL
same,MIC against MRSA 6381,MRSA 6381,4 µg/mL
same,MIC against S. aureus 6061,S. aureus 6061,8 µg/mL
same,MIC against MRSA ATCC 33592,MRSA ATCC 33592,4 µg/mL
same,MIC against A. baumannii 6043,A. baumannii 6043,8 µg/mL
same,MIC against A. baumannii 6838,A. baumannii 6838,8 µg/mL
same,MIC against A. baumannii ATCC 17978,A. baumannii ATCC 17978,16 µg/mL
same,mammalian cell toxicity (in words),L929 fibroblast cells,Limited toxicity
same,lowering of CFU/sample compared to control samples,"[1]; daily dose with a 2% concentration, dose-response protocol",more than 4 logs
same,reduction of CFU/tissue sample,"[1]; rodent vulvovaginal candidiasis, after three days of daily treatment",≥ 2.5 logs
same,S. aureus killing,[2],70%
